Results taken from patent US20260364182A1, “PROTEOLYSIS-TARGETING CHIMERAS AGAINST THE PAPAIN-LIKE PROTEASE OF SARS-COV-2” (Tocris Cookson Limited, priority 2022, published 2026).

Assays:
[1] = target: T1, SARS-CoV-2 PLpro (Severe acute respiratory syndrome coronavirus 2, UniProt P0DTD1); assay: IC50 inhibitory assay, fluorogenic substrate cleavage by PLpro; format: biochemical; settings: for IC50: SARS-CoV-2 PLpro 0.1 μM, substrate 10 μM, pH 8.1, 37 °C, 10 min preincubation; for inhibitory potency of PROTAC and parent ligand in binary IC50 experiment (in words): in vitro inhibitory assay, 20 mM HEPES, pH 8.1, 1% DMSO, PROTAC compared with parent ligand
T1 construct: The papain-like protease domain (PLpro) of SARS-CoV-2 (SCoV2)
Procedure: The inhibitory activities of compounds against SARS-CoV-2 PLpro were determined in a reaction buffer containing 20 mM HEPES, 40 mM NaCl, 5% glycerol, 2 mM DTT (freshly added before the measurements), pH 8.1, at 37 °C. A fluorescent substrate of SARS-CoV-2 PLpro (Z-Arg-leu-Arg-Gly-Gly-[…]AMC; Biosyntan, Berlin) was used, and the fluorescence signal of the cleaved substrate was monitored using a Tecan Spark® fluorescence spectrophotometer at an […] wavelength of 460/360 nm. SARS-CoV-2 PLpro (10 μL per well) was pipetted into a 96-well plate together with reaction buffer reaction buffer (50 μL per well, final enzyme concentration: 0.1 μM). Compounds (10 μL per well) were added at varying concentrations, and plates incubated at 37 °C for 10 mins. Finally, the reaction was initiated by adding 30 μL of the substrate (final concentration: 10 μM) dissolved in the reaction buffer.
FIG. 1: PROTAC and parent ligand for SARS-CoV-2 PLpro in a binary IC50 experiment. C10778A PROTAC (top left), comprising a SARS-CoV-2 PLpro targeting ligand C10778B (bottom left) connected to thalidomide via a C3 alkyl linker. IC50 values have been determined in an in vitro inhibitory binding assay whereby the fluorescence signal resulting from cleavage of a fluorogenic substrate by PLpro is measured. Inhibition of PLpro is associated with reduced cleavage of the fluorogenic substrate. […] Assay conditions: experiments were performed in 20 mM HEPES buffer containing 40 mM NaCl 5% glycerol, 2 mM DTT at pH 8.1. A fluorogenic substrate for PLpro (Z-Arg-leu-Arg-Gly-Gly-AMC) was used to determine the inhibition rate of compounds. Final DMSO concentration in each reaction was 1%. Measurements were performed in triplicate.

[2] = tested on: SARS-CoV-2; assay: Antiviral assay in infected Vero E6 cells (ATP quantification, Cell Titer Glo); settings: Vero E6 cells, MOI 0.05, 72 h; for inhibition at 10 µM / inhibition at 50 µM: Severe acute respiratory syndrome coronavirus 2, Vero C1008, 72 h; for inhibition at 10 µM: read-out: Antiviral Activity, 10 uM (cell viability assay), 10 uM; for inhibition at 50 µM: read-out: Antiviral Activity, 50 uM (cell viability assay), 50 uM; for Antiviral Activity, 10 uM (cell viability assay): 4320 min
Procedure: Vero E6 cells (2×10^4/well) were seeded in 96 well plates one day before the experiment. Pre-treatment, the medium was removed and compounds were added at concentrations varying from 0.1-100 μM. After 24 h incubation, the medium was removed and cells were infected with MOI 0.05 SARS-CoV-2 SARS-CoV2/ZG/297-20. After 1 h infection, the viruses were removed and the same concentration of compounds were added back into the cells. After 72 h incubation at 37 °C, EC50 measurements were made using ATP quantification (Cell Titer Glo).

Structure (SMILES) | IC50 [1] | inhibition at 10 µM [2] | inhibition at 50 µM [2] | Antiviral Activity, 10 uM (cell viability assay) [2] | inhibitory potency of PROTAC and parent ligand in binary IC50 experiment (in words) [1] | Antiviral Activity, 50 uM (cell viability assay) ([2]; 50 uM)
Cc1ccc(NC(=O)CCNc2cccc3c2C(=O)N(C2CCC(=O)NC2=O)C3=O)cc1C(=O)N[C@H](C)c1cccc2ccccc12 (stereo in doubt) [TS140] | > 25 µM | < 0% | < 0% |  |  | 
Cc1ccc(NC(=O)CCOCCNc2ccc3c4c(cccc24)C(=O)N(C2CCC(=O)NC2=O)C3=O)cc1C(=O)N[C@H](C)c1cccc2ccccc12 (stereo in doubt) [TS181] |  |  | < 0% | E (<0% = E) |  | 
Cc1ccc(NC(=O)CCCCCOc2cc(-c3scnc3C)ccc2CNC(=O)[C@@H]2C[C@@H](O)CN2C(=O)[C@@H](NC(=O)C2(F)CC2)C(C)(C)C)cc1C(=O)N[C@H](C)c1cccc2ccccc12 (stereo in doubt) [TS291] | > 25 µM | < 0% | < 25% |  |  | 
Cc1ccc(NC2CCNCC2)cc1C(=O)N[C@H](C)c1cccc(-c2ccc(CNC(=O)CCCOc3cccc4c3C(=O)N(C3CCC(=O)NC3=O)C4=O)s2)c1 (stereo partly drawn) [Compound C10778A, N-((1R)-1-(3-(5-((4-((2-(2,6-Dioxopiperidin-3-yl)-1,3-dioxoisoindolin-4-yl)oxy)butanamido)methyl)thiophen-2-yl)phenyl)ethyl)-2-methyl-5-(piperidin-4-ylamino)benzamide] | < 1 µM |  |  |  | retains nM activity for PLpro, similar to the parent compound | 
CC(=O)NCc1ccc(-c2cccc([C@@H](C)NC(=O)c3cc(NC4CCNCC4)ccc3C)c2)s1 [Compound C10778B, (R)—N-(1-(3-(5-(Acetamidomethyl)thiophen-2-yl)phenyl)ethyl)-2-methyl-5-(piperidin-4-ylamino)benzamide, reference compound] |  |  |  |  | nM activity for PLpro | 
Cc1ccc(NC2CCNCC2)cc1C(=O)N[C@H](C)c1cccc(-c2ccc(CNC(=O)CCCCCOc3cccc4c3C(=O)N(C3CCC(=O)NC3=O)C4=O)s2)c1 (stereo partly drawn) [Compound C10778C] | < 10 µM | < 0% | < 0% |  |  | 
Cc1ccc(NC2CCNCC2)cc1C(=O)N[C@H](C)c1cccc(-c2ccc(CNC(=O)CCCCCNc3ccc4c(c3)C(=O)N(C3CCC(=O)NC3=O)C4=O)s2)c1 (stereo partly drawn) [Compound C10778D] | < 1 µM | < 0% | < 0% |  |  | 
Cc1ccc(NC2CCNCC2)cc1C(=O)N[C@H](C)c1cccc(-c2ccc(CNC(=O)CCCNc3ccc4c(c3)C(=O)N(C3CCC(=O)NC3=O)C4=O)s2)c1 (stereo partly drawn) [Compound C10778E] | < 1 µM | < 0% | < 0% |  |  | 
Cc1ccc(NC2CCNCC2)cc1C(=O)N[C@H](C)c1cccc(-c2ccc(CNC(=O)CCCCNC(=O)COc3ccc(C4CCC(=O)NC4=O)cc3)s2)c1 (stereo partly drawn) [Compound C10778F] | < 10 µM | < 25% | < 25% |  |  | 
Cc1ccc(NC2CCNCC2)cc1C(=O)N[C@H](C)c1cccc(-c2ccc(CNC(=O)CCCCCNC(=O)COc3ccc(C4CCC(=O)NC4=O)cc3)s2)c1 (stereo partly drawn) [Compound C10778G] | < 1 µM | < 25% | < 25% |  |  | 
Cc1ccc(NC(=O)CCOCCNc2ccc3c4c(cccc24)C(=O)N(C2CCC(=O)NC2=O)C3=O)cc1C(=O)N[C@H](C)c1cccc2ccccc12 (stereo partly drawn) [Compound C10778H] | > 25 µM |  |  | D (<25% = D) |  | E (<0% = E)
Cc1ccc(NC2CCNCC2)cc1C(=O)N[C@H](C)c1cccc(-c2ccc(CNC(=O)CCCNc3cccc4c3C(=O)N(C3CCC(=O)NC3=O)C4=O)s2)c1 (stereo partly drawn) [Compound C10778I] | < 1 µM | < 0% | < 0% |  |  | 
Cc1ccc(NC(=O)CCCCCNc2cccc3c2CN(C2CCC(=O)NC2=O)C3=O)cc1C(=O)N[C@H](C)c1cccc2ccccc12 (stereo partly drawn) [TS121] | 10 to 25 µM | < 0% | < 0% |  |  | 
Cc1ccc(NC(=O)CCCCNc2cccc3c2CN(C2CCC(=O)NC2=O)C3=O)cc1C(=O)N[C@H](C)c1cccc2ccccc12 (stereo partly drawn) [TS124] | < 10 µM | < 0% | < 25% |  |  | 
Cc1ccc(NC(=O)CCOCCOCCOCCNc2cccc3c2C(=O)N(C2CCC(=O)NC2=O)C3=O)cc1C(=O)N[C@H](C)c1cccc2ccccc12 (stereo partly drawn) [TS128] | < 10 µM | < 0% | < 0% |  |  | 
Cc1ccc(NC(=O)CCOCCOCCOCCOCCNc2cccc3c2C(=O)N(C2CCC(=O)NC2=O)C3=O)cc1C(=O)N[C@H](C)c1cccc2ccccc12 (stereo partly drawn) [TS129] | 10 to 25 µM | < 0% | < 0% |  |  | 
Cc1ccc(NC(=O)CCOCCOCCNc2cccc3c2C(=O)N(C2CCC(=O)NC2=O)C3=O)cc1C(=O)N[C@H](C)c1cccc2ccccc12 (stereo partly drawn) [TS139] | < 10 µM | < 0% | < 25% |  |  | 
Cc1ccc(NC(=O)CCOCCNc2cccc3c2C(=O)N(C2CCC(=O)NC2=O)C3=O)cc1C(=O)N[C@H](C)c1cccc2ccccc12 (stereo partly drawn) [TS144] | 10 to 25 µM | < 0% | < 0% |  |  | 
Cc1ccc(NC(=O)CCCNc2cccc3c2C(=O)N(C2CCC(=O)NC2=O)C3=O)cc1C(=O)N[C@H](C)c1cccc2ccccc12 (stereo partly drawn) [TS145] | < 10 µM |  |  |  |  | 
Cc1ccc(NC(=O)CCOCCOCCNc2ccc3c4c(cccc24)C(=O)N(C2CCC(=O)NC2=O)C3=O)cc1C(=O)N[C@H](C)c1cccc2ccccc12 (stereo partly drawn) [TS170] | < 10 µM | < 0% | < 25% |  |  | 
Cc1ccc(NC(=O)CCOCCOCCOCCNc2ccc3c4c(cccc24)C(=O)N(C2CCC(=O)NC2=O)C3=O)cc1C(=O)N[C@H](C)c1cccc2ccccc12 (stereo partly drawn) [TS182] | < 10 µM | < 0% | < 25% |  |  | 
Cc1ccc(NC(=O)CCCCOc2cc3c4c(cccc4c2)C(=O)N(C2CCC(=O)NC2=O)C3=O)cc1C(=O)N[C@H](C)c1cccc2ccccc12 (stereo partly drawn) [TS251] | 10 to 25 µM | < 0% | < 25% |  |  | 
Cc1ccc(NC(=O)CCCCNc2cccc3c2C(=O)N(C2CCC(=O)NC2=O)C3=O)cc1C(=O)N[C@H](C)c1cccc2ccccc12 (stereo partly drawn) [TS267] | < 10 µM | < 0% | < 0% |  |  | 
Cc1ccc(NC(=O)CCCCOc2cc(-c3scnc3C)ccc2CNC(=O)[C@@H]2C[C@@H](O)CN2C(=O)[C@@H](NC(=O)C2(F)CC2)C(C)(C)C)cc1C(=O)N[C@H](C)c1cccc2ccccc12 [TS290] | > 25 µM | < 0% | < 25% |  |  | 
Cc1ccc(NC(=O)CCCCC(=O)N[C@H](C(=O)N2C[C@H](O)C[C@H]2C(=O)NCc2ccc(-c3scnc3C)cc2)C(C)(C)C)cc1C(=O)N[C@H](C)c1cccc2ccccc12 [TS309] | 10 to 25 µM | < 0% | < 0% |  |  | 
Cc1ccc(NC(=O)CCCCCCC(=O)N[C@H](C(=O)N2C[C@H](O)C[C@H]2C(=O)NCc2ccc(-c3scnc3C)cc2)C(C)(C)C)cc1C(=O)N[C@H](C)c1cccc2ccccc12 [TS310] | > 25 µM | < 0% | < 0% |  |  | 
Cc1ccc(NC(=O)CCCCCCCCC(=O)N[C@H](C(=O)N2C[C@H](O)C[C@H]2C(=O)NCc2ccc(-c3scnc3C)cc2)C(C)(C)C)cc1C(=O)N[C@H](C)c1cccc2ccccc12 [TS311] | > 25 µM | < 0% | < 0% |  |  | 
C[C@H](c1cccc2ccccc12)N1CCC(C(=O)NCc2cc(F)cc(NC(=O)N3CCN(CCOCCOCCOc4cccc5c4C(=O)N(C4CCC(=O)NC4=O)C5=O)CC3)c2)CC1 (stereo partly drawn) [TS420] | < 10 µM | < 25% | < 0% |  |  | 
C[C@H](c1cccc2ccccc12)N1CCC(C(=O)NCc2cc(F)cc(NC(=O)N3CCN(CCOCCOCCOCCOc4cccc5c4C(=O)N(C4CCC(=O)NC4=O)C5=O)CC3)c2)CC1 (stereo partly drawn) [TS423] | < 10 µM | < 25% | < 0% |  |  | 
C[C@H](c1cccc2ccccc12)N1CCC(C(=O)NCc2cc(F)cc(NC(=O)N3CCN(CCOCCOc4cccc5c4C(=O)N(C4CCC(=O)NC4=O)C5=O)CC3)c2)CC1 (stereo partly drawn) [TS424] | < 10 µM | < 0% | < 0% |  |  | 
